Molecules are shown by their SMILES.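 Five compound concentrations were applied to cells in 96-well plates for 48 hours; endpoints were derived by simple linear interpolation of the resulting dose-response curve. GI50 marks 50% less growth.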 The source made the active and inactive calls. Rule as the data show it: active = GI50 up to about 1.1 µM and inactive = higher. A value given as a limit tells only on which side of the number the result lay.

Test systems include A549; CCRF-CEM; COLO 205; HL-60; HOP-92; OVCAR-3; OVCAR-8; RPMI-8226; RXF 393; SF-268; SK-OV-3; SW-620; UACC-257; UO-31; Hs-578T; MDA-MB-231; MDA-MB-435; NCI/ADR-RES; T47D.
What all share (assay): NCI tumour cell line growth inhibition, 48 h

Regarding `COC(=O)C(Cc1c[nH]c2ccccc12)NC(=O)C(Cc1c[nH]c2ccccc12)NC(=O)OCc1ccccc1` (stereo unspecified), the GI50 in the assay with A549 is 17.8 µM (inactive); with CCRF-CEM, 21.7 µM (inactive); with COLO 205, 16.8 µM (inactive); in the assay on HL-60 it was 20.8 µM (inactive); in the assay on HOP-92, 20 µM (inactive); in the assay on OVCAR-3 it was 15.5 µM (inactive). For the same molecule, the GI50 in the assay on OVCAR-8 is 17.9 µM (inactive); in the assay with RPMI-8226, 11.7 µM (inactive); in the assay on RXF 393, 19.5 µM (inactive); in the assay on SF-268, 19.1 µM (inactive); in the assay on SK-OV-3 it was 19.7 µM (inactive); in the assay on SW-620, 17.5 µM (inactive). Also, the values for the GI50 in the assay on UACC-257 and in the assay on UO-31 were > 100 µM (inactive) and 19.3 µM (inactive), respectively.

`COc1c2c(cc3c1C(=O)Cc1ccc4c(c1CN(C)CC3)OCO4)OCO2`: the GI50 with A549 was > 100 µM (inactive); in the assay with CCRF-CEM it was 70.5 µM (inactive); in the assay with COLO 205 it was 43.1 µM (inactive); with HL-60, 30.1 µM (inactive); in the assay on HOP-92 it was 5.71 µM (inactive); in the assay on OVCAR-3, > 100 µM (inactive). Besides, the GI50 was > 100 µM (inactive) with OVCAR-8; 85.3 µM (inactive) in the assay with RPMI-8226; > 100 µM (inactive) in the assay on RXF 393; > 100 µM (inactive) in the assay with SF-268; > 100 µM (inactive) with SK-OV-3; > 100 µM (inactive) with SW-620. Further, the GI50 is > 100 µM (inactive) with UACC-257 and 12.2 µM (inactive) in the assay with UO-31.

Turning to `CN/N=C(\C)CC(=O)Nc1cccc(Cl)c1C`, the GI50 with A549 is > 100 µM (inactive); in the assay on CCRF-CEM it was 96.6 µM (inactive); in the assay on COLO 205, > 100 µM (inactive); in the assay with HL-60, > 100 µM (inactive); in the assay on HOP-92, > 100 µM (inactive); with OVCAR-3 it was > 100 µM (inactive). Further, the GI50 in the assay on OVCAR-8, with RPMI-8226, in the assay with RXF 393, with SF-268, with SK-OV-3 and in the assay on UACC-257 was > 100 µM (inactive) each time. For the same molecule, the GI50 in the assay on UO-31 is > 100 µM (inactive).

With `NC1=C(N2CCOCC2)C(=O)NC2=N/C(=C\c3ccccc3)C(=O)N21`, the GI50 in the assay with A549 was > 100 µM (inactive); in the assay on CCRF-CEM, 79.6 µM (inactive); in the assay with COLO 205, > 100 µM (inactive); with HL-60 it was 17.9 µM (inactive); with HOP-92, > 100 µM (inactive); in the assay on Hs-578T, > 100 µM (inactive). Besides, the GI50 in the assay on MDA-MB-231 is > 100 µM (inactive); with MDA-MB-435 it was > 100 µM (inactive); with NCI/ADR-RES, > 100 µM (inactive); in the assay on OVCAR-8, > 100 µM (inactive); in the assay with RPMI-8226, 47.4 µM (inactive); in the assay with RXF 393, > 100 µM (inactive). For the same molecule, the GI50 in the assay on SF-268 is > 100 µM (inactive); with SK-OV-3 it was > 100 µM (inactive); in the assay on SW-620, > 100 µM (inactive); in the assay on T47D it was 81.3 µM (inactive); with UACC-257, > 100 µM (inactive); with UO-31, > 100 µM (inactive).

Consider `C[C@@H](NC(=O)OC1C=CC2(CC1)C(=O)N(C)c1ccccc12)c1cccc2ccccc12` (stereo partly specified), for which the GI50 is 12.8 µM (inactive) in the assay on A549; 14.7 µM (inactive) in the assay with CCRF-CEM; 15.1 µM (inactive) in the assay with COLO 205; 0.944 µM (active) in the assay with HL-60; > 25 µM (inactive) in the assay on HOP-92; > 25 µM (inactive) with MDA-MB-231. Moreover, the GI50 is 9.57 µM (inactive) in the assay with MDA-MB-435; 11.7 µM (inactive) in the assay on NCI/ADR-RES; > 25 µM (inactive) in the assay with OVCAR-3; > 25 µM (inactive) in the assay with OVCAR-8; 8.79 µM (inactive) with RPMI-8226; 7.36 µM (inactive) with SF-268. The GI50 in the assay on SK-OV-3 was > 25 µM (inactive); in the assay with SW-620, > 25 µM (inactive); in the assay with T47D, 7.26 µM (inactive); in the assay on UACC-257 it was 12.2 µM (inactive); in the assay with UO-31, > 25 µM (inactive).

For the molecule `CC(C)(C)C(=O)Nc1ccccc1Br`, the GI50 in the assay with A549, in the assay on CCRF-CEM, in the assay on COLO 205, in the assay on HL-60, in the assay on HOP-92 and in the assay on OVCAR-3 was > 100 µM (inactive) in each case. Moreover, the GI50 in the assay on OVCAR-8, in the assay with RPMI-8226, in the assay with RXF 393, in the assay with SK-OV-3, in the assay with SW-620 and in the assay with UACC-257 was > 100 µM (inactive) in each case. Further, the GI50 in the assay with UO-31 was > 100 µM (inactive).

As to `Cc1nc2c(nc1C)-c1[nH]c3c(c1C(=O)C2=O)CCCC3=O`, the GI50 was 3.87 µM (inactive) with A549; 1.91 µM (inactive) with CCRF-CEM; 2.88 µM (inactive) in the assay on COLO 205; 2.42 µM (inactive) in the assay with HL-60; 1.69 µM (inactive) with HOP-92; 3.66 µM (inactive) with Hs-578T. The GI50 in the assay with MDA-MB-231 is 1.59 µM (inactive); in the assay with MDA-MB-435, 0.483 µM (active); with NCI/ADR-RES, 2.25 µM (inactive); in the assay with OVCAR-8 it was 1.5 µM (inactive); with RPMI-8226 it was 1.25 µM (inactive); in the assay with RXF 393 it was 0.516 µM (active). Besides, the GI50 is 1.47 µM (inactive) with SF-268; 2.4 µM (inactive) with SK-OV-3; 1.95 µM (inactive) in the assay on SW-620; 0.592 µM (active) in the assay with T47D; 2.02 µM (inactive) in the assay with UACC-257; 4.02 µM (inactive) in the assay with UO-31.

As to `CC(=O)/C=C/c1ccc(C2CC(C)=Nc3c(ccc4c3C(=O)c3ccccc3C4=O)N2)cc1` (stereo unspecified), the GI50 was > 40.1 µM (inactive) in the assay on A549; 1.28 µM (inactive) with CCRF-CEM; 60.7 µM (inactive) in the assay on COLO 205; 0.944 µM (active) in the assay on HL-60; 28.2 µM (inactive) in the assay with HOP-92; > 93.8 µM (inactive) in the assay on OVCAR-3. The GI50 with OVCAR-8 is 28.2 µM (inactive); with RPMI-8226, > 52.4 µM (inactive); in the assay with RXF 393, 92 µM (inactive); in the assay with SF-268 it was > 71 µM (inactive); in the assay with SK-OV-3 it was 15.9 µM (inactive); in the assay with SW-620, 38.5 µM (inactive). In the assay with UO-31, the GI50 is 4.88 µM (inactive).

On to `CCOC(=O)CCn1cnc(N)n1`, for which the GI50 with A549, in the assay with CCRF-CEM, with COLO 205, with HL-60, in the assay on HOP-92 and in the assay on OVCAR-3 was > 100 µM (inactive) throughout. Also, the GI50 with OVCAR-8, with RPMI-8226, in the assay with RXF 393, in the assay with SK-OV-3, with SW-620 and with UACC-257 was > 100 µM (inactive) in each case. Besides, in the assay on UO-31, the GI50 was > 100 µM (inactive).

On to `CC(C)C1COC(c2ccc3ccccc3c2-c2c(O[Si](C)(C)C(C)(C)C)ccc3ccccc23)=N1` (stereo unspecified), for which the GI50 was 17.4 µM (inactive) in the assay on A549; 18.1 µM (inactive) in the assay with CCRF-CEM; 18.4 µM (inactive) in the assay with COLO 205; 16.1 µM (inactive) with HL-60; 13.6 µM (inactive) in the assay with HOP-92; 17.3 µM (inactive) in the assay on OVCAR-3. For the same molecule, the GI50 in the assay on OVCAR-8 was 18 µM (inactive); with RPMI-8226 it was 14.7 µM (inactive); in the assay with RXF 393 it was 18.8 µM (inactive); with SF-268, 17.9 µM (inactive); in the assay on SK-OV-3, 19.8 µM (inactive); with SW-620 it was 18.5 µM (inactive). Moreover, the values for the GI50 in the assay with UACC-257 and with UO-31 were 18.2 µM (inactive) and 14.8 µM (inactive), respectively.

Take `COc1ccc(C(=O)C(C(=O)CCC(=O)Nc2ccc(Cl)c(Cl)c2)c2ccc(OC)cc2)cc1` (stereo unspecified): the GI50 in the assay on A549 was > 100 µM (inactive); with CCRF-CEM, > 100 µM (inactive); with HL-60 it was 97.1 µM (inactive); with HOP-92, > 100 µM (inactive); in the assay on OVCAR-3, > 100 µM (inactive); with OVCAR-8, > 100 µM (inactive). The GI50 with RPMI-8226, in the assay on RXF 393, with SF-268, in the assay with SW-620, with UACC-257 and in the assay on UO-31 was > 100 µM (inactive) in each case.

As for `Cc1ccccc1NC(=O)C(=O)c1c(O)c2ccc(O)cc2oc1=O`, the GI50 with A549, with CCRF-CEM, in the assay on COLO 205, in the assay with HL-60, in the assay on HOP-92 and in the assay on OVCAR-3 was > 100 µM (inactive) each time. The GI50 with OVCAR-8, in the assay with RPMI-8226, in the assay with RXF 393, in the assay with SF-268, in the assay on SK-OV-3 and in the assay on SW-620 was > 100 µM (inactive) each time. The GI50 in the assay on UACC-257 and with UO-31 was > 100 µM (inactive) in each case.

`CCC(C)CCOC(=O)c1ccc(/N=C\c2ccc(/C=N/c3ccc(C(=O)OCCC(C)CC)cc3)cc2)cc1` (stereo unspecified): the GI50 in the assay with A549, in the assay on CCRF-CEM, with COLO 205, in the assay on HL-60, with HOP-92 and in the assay with OVCAR-3 was > 100 µM (inactive) each time. In addition, the GI50 in the assay on OVCAR-8, in the assay on RPMI-8226, in the assay with RXF 393, with SF-268, in the assay on SK-OV-3 and with SW-620 was > 100 µM (inactive) each time. In addition, the GI50 in the assay on UACC-257 was > 100 µM (inactive); with UO-31 it was 41.1 µM (inactive).

Regarding `C=CC1=CC(C)C[C@]1(O)C(=O)OC` (stereo partly specified), the GI50 with A549, in the assay with CCRF-CEM, in the assay with COLO 205, in the assay with HL-60, in the assay on HOP-92 and in the assay on OVCAR-3 was < 0.01 µM (active) throughout. In addition, the GI50 is < 0.01 µM (active) in the assay on OVCAR-8; < 0.01 µM (active) in the assay on RPMI-8226; < 0.01 µM (active) with RXF 393; < 0.01 µM (active) with SF-268; > 100 µM (inactive) in the assay on SK-OV-3; 38.5 µM (inactive) with SW-620. In addition, the GI50 in the assay with UACC-257 and with UO-31 was < 0.01 µM (active) throughout.

The values are drawn from ChEMBL document CHEMBL1201862, “PubChem BioAssay data set” (2004).
